Results from patent US20250249110A1, “ANTIMICROBIAL PEPTIDE DERIVATIVE AND USE THEREOF” (SICHUAN UNIVERSITY, priority 2016, published 2025).
Where a SMILES comes first, the peptide text is derived from it. The star is where a group is joined. Succinyl(4-O-cholesteryl) = CC(C)CCC[C@@H](C)[C@H]1CC[C@H]2[C@@H]3CC=C4C[C@@H](OC(=O)CCC(=O)*)CC[C@]4(C)[C@H]3CC[C@]12C

What was measured:
multiple strains = assay: Antibacterial activity in vitro (MIC); format: cell-based
[1] = system: B16 metastatic melanoma in the lung; assay: B16 mouse model of metastatic melanoma in the lung; format: in vivo
Protocol: In order to further characterize the application potential of DP7-C micelles in tumor therapy, we established a B16 mouse model of metastatic melanoma in the lung and used DP7-C to transmit anti-VEGF siRNA therapeutic genes for therapeutic research. • (1) On day 0, female C57 mice aged 6-8 weeks are […] inoculated with 0.1 mL of cell suspension (containing about 2.5×10^5 B16 cells). • (2) On day 3, mice are randomly divided into 4 groups, 8 mice for each group, and are labeled. • (3) Mice are injected with 7 doses of normal saline (blank control group), blank DP7-C micelle (60 μg), DP7-C/no-sense control siRNA complex (60 μg/12 μg) or DP7-C/VEGF siRNA complex (60 μg/12 μg) respectively through tail veins. • (4) On day 20, when the mice in the control group are already very weak, all the mice are killed by cervical dislocation; the tumor tissues in the lung as well as the heart, liver, spleen, lung and kidney tissues are immediately collected, weighed and analyzed. The collected heart, liver, spleen, lung and kidney tissues are analyzed by HE staining.

[2] = system: Pseudomonas aeruginosa with fluorescence (PAO1-GFP); assay: Abdominally infected zebrafish model; format: in vivo; details: DP7-C 1 mg/mL; green fluorescence at 3 h, 8 h, 18 h
Protocol: Next, we established an abdominally infected zebrafish model through Pseudomonas aeruginosa with fluorescence (PAO1-GFP) to further verify the anti-infection effect of DP7-C.
The male and female AB wild zebrafish were mated according to the mating and breeding procedures. After spawning, the roe was collected, placed in an incubator at 28° C. and incubated in the seawater containing PTU. The seawater containing PTU was changed once a day. When zebrafish was incubated for 48 h, Pseudomonas aeruginosa with fluorescence (PAO1-GFP) diluted with DP7-C and normal saline was intraperitoneally injected, and photographs were taken at 3 h, 8 h and 18 h under a fluorescence microscope to observe the growth of PAO1-GFP in the abdomen of zebrafish.

[3] = Physical characteristics of DP7-C micelles (Malvin particle size meter, appearance); format: physicochemical
Excerpt: We detected some physical characteristics such as particle size and Zeta potential of DP7-C micelles by the atomic force microscope and Malvin particle size meter. • 1 Atomic force microscope photography: prepare different concentrations of DP7-C solution, add to the mica sheets dropwise and dry naturally. Put the mica sheets coated with DP7-C on the atomic force microscope for photography. • 2 Detection of particle size and Zeta potential: dissolve DP7-C in Milliq water, determine particle size and Zeta potential by Malvin particle size meter, and detect each sample for four times to obtain their average value. • 3 Appearance and solution state of DP7-C: observe the appearance of MilliQ water, DP7-C water solution and lyophilized powder, and take photos with a camera; wherein, a is MilliQ water, b is DP7-C dissolved in aqueous solution, C is the state of DP7-C lyophilized powder after redissolving, and d is the shape and color of DP7-C lyophilized powder.

NY-ESO-1+B16 tumor cells = assay: NY-ESO-1 vaccine, preventive and therapeutic NY-ESO-1+ B16 tumor models; format: in vivo, mouse; details: both preventive and therapeutic model; NY-ESO-1 protein antigen
Protocol: The specific steps are as follows: • (1) Vaccine preparation
Incubate 20 μg of CpG and 40 μg of DP7-C at 37° C. for 15 min, add 5 μg of NY-ESO-1 protein, and replenish to a volume of 100 μl with sterile PBS. • (2) Grouping and dosage regimen
In this study, animal experiments are divided into […]: NS, CpG, DP7-C and CpG/DP7-C, 10 mice for each group, and the dosage of each mouse is as follows: • (1) NS group: 100 μl of PBS; • (2) CpG group: 5 μg of NY-ESO-1 protein+20 μg of CpG; • (3) DP7-C group: 5 μg of NY-ESO-1 protein+40 μg of DP7-C; • (4) CpG/DP7-C group: 5 μg of NY-ESO-1 protein+20 μg of CpG+40 μg DP7-C;
The total dosage of each mouse is 100 μl; if the dosage is less than 100 μl, sterile PBS may be added to reach 100 μl. • (3) Preventive immunity tumor model: perform subcutaneous immunotherapy at multiple sites on weeks 0, 2 and 4, and detect total antibody titers before inoculate tumor on week 5. Subcutaneously inoculate the tumor cells NY-ESO-1+B16: […] at the back of each mouse. After the tumor grows out, measure it at intervals of 3 days. Calculation formula of tumor volume: 0.52×length×width^2. Therapeutic immune tumor model: subcutaneously inoculate 2×10^5 of NY-ESO-1^+B16 tumor cells at the back of each mouse on day 0, and immunize on day 5 (once a week, for 3 consecutive times). Measure at intervals of 3 days and observe the survival time after the tumor grows out.

splenic lymphocytes = assay: Cellular immune response of splenic lymphocytes (intracellular cytokine flow cytometry); format: cell-based, mouse; details: spleen of immunized mice, OVA restimulation
Excerpt: […]

[4] = tail vein injection, 7 doses, day 20
[5] = Milliq water, Malvin particle size meter

With CC[C@H](C)[C@H](NC(=O)[C@H](CCCNC(=N)N)NC(=O)[C@H](Cc1c[nH]c2ccccc12)NC(=O)[C@H](CCC(N)=O)NC(=O)[C@@H](NC(=O)CCC(=O)O[C@H]1CC[C@@]2(C)C(=CC[C@H]3[C@@H]4CC[C@H]([C@H](C)CCCC(C)C)[C@@]4(C)CC[C@@H]32)C1)C(C)C)C(=O)N[C@@H](CCCNC(=N)N)C(=O)N[C@H](C(=O)N[C@@H](C)C(=O)N[C@H](C(=O)N[C@H](C(=O)N[C@@H](CCCNC(=N)N)C(=O)N[C@@H](CCCCN)C(N)=O)[C@@H](C)CC)C(C)C)C(C)C [DP7-C, Chol-suc-VQWRIRVAVIRK-NH2] ({Succinyl(4-O-cholesteryl)}-VQWRIRVAVIRK-NH2) the MIC (multiple strains) was greater than 1024 mg/L, the “HE staining of major organ tissues” value ([1]; heart, liver, spleen, kidney) was “no significant pathological changes” and the “average number of tumor nodes” value [1, 4] was 132±22. For the same compound, the “average weight of lung tissue” value [1, 4] was 0.41 ± 0.1 g, the “growth rate of PAO1-GFP in zebrafish abdominal cavity” value [2] was “much lower than that of NS group” and the Zeta potential [3, 5] was “about 28.8±0.27 mV”. The particle size [3, 5] was “about 24.3±1.5 nm”, the solubility in water ([3]; lyophilized powder) was “soluble in water” and the tumor growth (NY-ESO-1+B16 tumor cells) was “inhibit tumor growth to some extent”. The “percentage of CD4+/IFN-γ+, CD8+/IFN-γ+ and CD4+/IL-17A+ cells” value (splenic lymphocytes) was “increased”.
